Measured values reported in US20260183420A1, “ACTIVATED NANOTHERAPY FOR SICKLE CELL DISEASE” (UNIVERSITY OF MARYLAND, BALTIMORE, priority 2022, published 2026).

Assays:
[1] = target: T1, Hb (HbS) in human SS RBCs (Homo sapiens, UniProt P69905); experiment: 5-HMF-induced Hb modification quantitated by cation exchange HPLC in RBCs from SCD patients; format: cell-based
T1 construct: endogenous in cells; host or cells: red blood cells from patients with sickle cell disease (human SS RBCs)
Description: HPLC was performed to detect binding of an allosteric effector to Hb.
(§1) FIG. 19A presents illustrative chromatograms (standards & samples).
(§2) 5-HMF-induced Hb modification was quantitated by HPLC (Waters™ e2695XE Alliance™, Swift WCX-PEEK); O2 dissociation curves (ODC) were measured in intact RBCs (HEMOX Analyzer); pO2's at the point of sickling (POS) and point of unsickling (POU) were determined during controlled Hb O2 unloading/loading, respectively (LORRCA Oxygenscan RR Mechatronics).
See data in FIG. 21A and FIG. 21B (control patients) and FIG. 21C and FIG. 21D (SCD patients).

[2] = target: T2, Hb (HbO2 affinity) in intact SRBCs (Homo sapiens, UniProt P69905); experiment: O2 dissociation curve / HbO2 affinity (p50) in intact SRBCs (HEMOX Analyzer); format: cell-based; conditions: pH 7.4, 5 mM 5-HMF, 1 hour, intact SCD RBCs
T2 construct: endogenous in cells; host or cells: red blood cells from patients with sickle cell disease (human SS RBCs)
Description: Hemox analysis methods determine oxygen partial pressure and the degree of hemoglobin saturation with oxygen using a Clark oxygen electrode and spectrophotometry, respectively.
as §1, §2
(§3) After either 1 hour or 3 hours, either or both oxygen dissociation curves (ODC) or laser ektacytometry was performed to measure either or both p50 and POS/POR. […] As for PK data, effect upon p50 and POS/POR appear to progress from 1 hour to 3 hours. […] See also the results in FIG. 23. CNP=carbon nanoparticle.

human SS RBCs = experiment: Laser ektacytometry during controlled deoxygenation/reoxygenation (LORRCA Oxygenscan): POS, POR, elongation index; format: cell-based; conditions: 1 hour
Source text: The LORRCA red blood cell analysis platform was used to obtain information on deformability (cell and cell membrane stability), including under an osmotic gradient (osmotic resistance). The platform also can provide data on aggregation tendency and kinetics and measure the relative oxygen pressure at the critical point when the red blood cells start to sickle. Here, RBC Osmotic Fragility (elongation index (EI) vs. osmolality at specific sheer), RBC Deformability (EI vs sheer at specific osmolality), and RBC Oxyscan Sickling Characteristics (EI vs pO2) were determined. See, for example, FIG. 5.
See FIG. 6 for a description of how EI is calculated. See FIG. 7 for an example calculation of Oxyscan analysis parameters. […] LORRCA determines POS as the pO2 corresponding to a 5% decrease in EImax. If the EI is not completely stable at high pO2 (i.e., the Oxyscan baseline is not level), POS is calculated to be artificially high. FIG. 9 is a graph showing an example point of sickling (POS) determination from “first derivative,” which is taken from the plot. A common method to process, the first derivative of a spectrum is the rate of change of absorbance with respect to wavelength.
as §1, §2, §3

[3] = system: RBCs from subjects without sickle cell disease; experiment: RBC lysis, blood from subjects without sickle cell disease; format: cell-based, human; conditions: healthy blood, 1-hour incubation at 37° C.
Description: Blood samples (RBCs) from subjects without sickle cell disease were tested with compounds to determine whether the compounds have any impact on RBC physiology, including tests for lysis, LORRCA (deformability and osmotic fragility), and HEMOX (ODC (p50) and cooperativity (Hill number)) after a 1-hour incubation at 37° C. See FIG. 33 for results for HPLC analysis of Hb modification; FIG. 34 for results for % RBC lysis for control blood (combined); FIG. 35 for results as shown; FIG. 36 for results for RBC osmotic fragility; and FIG. 37 for p50 and Hill number results for the oxygen dissociation curve (ODC).

[4] = human trials; cited from earlier work

T1 sequence (P69905 2-142): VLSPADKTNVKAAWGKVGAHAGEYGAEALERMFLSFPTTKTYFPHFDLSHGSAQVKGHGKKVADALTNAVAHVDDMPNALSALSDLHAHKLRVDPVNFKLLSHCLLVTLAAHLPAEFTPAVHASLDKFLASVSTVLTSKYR
T1 sequence (P68871 with tags, fused parts or gaps E7V partner): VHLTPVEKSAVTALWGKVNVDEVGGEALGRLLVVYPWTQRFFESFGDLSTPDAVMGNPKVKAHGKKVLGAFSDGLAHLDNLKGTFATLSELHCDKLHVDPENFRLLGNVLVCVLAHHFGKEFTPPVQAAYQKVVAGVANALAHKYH
T2 sequence (P69905 2-142): as the sequence (P69905 2-142) above
T2 sequence (P68871 with tags, fused parts or gaps E7V partner): as the sequence (P68871 with tags, fused parts or gaps E7V partner) above

5-HMF induced Hb modification (maximal) ([1]; SCD RBCs, 20% Hct, 37° C., 1 hour, 5 mM 5-HMF): about 75% | ODC p50 [2]: 20.3±1.5 Torr | RBC lysis versus PBS control [3]: no difference
SMILES: O=Cc1ccc(CO)o1 [Nanoparticle 5-HMF, 5-(hydroxymethyl)furfural]
relative efficacy for % 5-HMF adducted Hb (ranking high to low) ([1]; equimolar for 5-HMF (5 mM), 0.25-24 hours): (high to low): free CoNP, 5-HMF, LP, CD, LNP | POR decrease (human SS RBCs; 0 vs 5 mM 5-HMF): 45% | POS decrease (human SS RBCs; 0 vs 5 mM 5-HMF): 30% | pO2 at point of sickling (POS) (human SS RBCs; 5 mM 5-HMF, SCD RBCs): 39.8±11.6 Torr | bioavailability [4]: low bioavailability | half-life [4]: ~1 h
